Results as given in a melting point compilation (Tetko et al.).

SMILES: N#Cc1ccc(CN2CCCCC2)cc1
- melting point: 38 to 40 °C

SMILES: COc1cc2c(cc1OC)C(C#N)C2 (stereo unspecified)
- melting point: 82 °C

SMILES: NC(=O)[C@@H]1CCCC[C@@H]1O (relative stereo)
- melting point: 115 to 119 °C

SMILES: CCCCCCCCCCC1CCCC1
- melting point: -22 °C

SMILES: Cc1ccc(CNC(=O)c2cc([N+](=O)[O-])cc([N+](=O)[O-])c2)c(C)c1
- melting point: 180 °C

SMILES: CCNC(=O)C(C)OC(=O)Nc1ccccc1 (stereo unspecified)
- melting point: 119 °C

SMILES: CC(C)(C#N)C#N
- melting point: 31.5 °C

SMILES: O=Cc1ccc(F)cc1Cl
- melting point: 62 °C

SMILES: O=C(O)C1(O)c2ccccc2-c2ccc(Cl)cc21 (stereo unspecified)
- melting point: 152 °C

SMILES: Nc1ncnc2c1ncn2C1CCC(CO)O1 (stereo unspecified)
- melting point: 185 °C

SMILES: Cc1cnc(O)c(Br)c1
- melting point: 157 °C

SMILES: NC(=S)c1csc2ccccc12
- melting point: 121 to 124 °C

SMILES: CC(=O)OC12COC1CC(O)C1(C)C(=O)C(O)C3=C(C)C(O)CC(O)(C(OC(=O)c4ccccc4)C21)C3(C)C (stereo unspecified)
- melting point: 231 to 236 °C

SMILES: CCCCC(C(=O)O)C(=O)O
- melting point: 104 °C

SMILES: Nc1ccc2c(c1)C(=O)c1ccc(N)cc1C2=O
- melting point: 325 °C

SMILES: CCCCCCCCc1ccc(NC(=O)c2ccc(OC)cc2)cc1
- melting point: 132 °C

SMILES: CC12CCC3C(CC=C4CC(Cl)CCC43C)C1CCC2=O (stereo unspecified)
- melting point: 157 °C

SMILES: CN(C)c1ccc(N=O)cc1
- melting point: 92.5 °C

SMILES: O=[N+]([O-])c1ccc(C=NNc2ccccc2)cc1
- melting point: 166 °C

SMILES: Nc1cc([N+](=O)[O-])ccc1F
- melting point: 101 °C

SMILES: CC1(C)C(C=C2CCSC2=O)C1C(=O)OCc1coc(Cc2ccccc2)c1 (stereo unspecified)
- melting point: 31 °C

SMILES: ClCCCOc1ccccc1
- melting point: 12 °C

SMILES: O=[N+]([O-])c1c(Cl)ccc2nsnc12
- melting point: 149 to 152 °C

SMILES: O=C=Nc1c(F)cccc1F
- melting point: 24 °C

SMILES: CN(C)c1ccc(C=Cc2ccccc2)cc1
- melting point: 150 °C

SMILES: CCN(CC)CCC1(c2ccccc2)C(=O)Oc2ccccc21 (stereo unspecified)
- melting point: 43.4 °C

SMILES: CC(NC(=O)c1ccccc1)C(=O)O (racemic)
- melting point: 166 °C

SMILES: CN(C)c1ccc(N=Nc2ccc(N=C=S)cc2)cc1
- melting point: 167 to 171 °C

SMILES: CC(C)CC1c2ccccc2-c2ccccc21
- melting point: 45 °C

SMILES: O=C(CBr)c1csc2ccccc12
- melting point: 138 to 139 °C

SMILES: ClCc1cccc(-c2ncccn2)c1
- melting point: 68 to 70 °C

SMILES: Cc1nc(-c2ccc(C#N)cc2)cs1
- melting point: 154 °C

SMILES: C1=CCC(c2ccncc2)CC1 (stereo unspecified)
- melting point: 22.1 °C

SMILES: S=C(NN=Cc1c(-c2ccc(Cl)cc2)[nH]c2ccccc12)Nc1ccc(Cl)cc1
- melting point: 215 to 217 °C

SMILES: ON=C(c1ccccc1)c1ccccc1
- melting point: 140 to 144 °C

SMILES: O=C(O)CCc1nc(-c2ccccc2)c(-c2ccccc2)o1
- melting point: 160 °C

SMILES: CC(CC(=O)c1ccc(Cl)cc1)C(=O)O (stereo unspecified)
- melting point: 137 to 139 °C

SMILES: CCCCCOc1ccc(-c2ccc(C#N)cc2)cc1
- melting point: 48 °C

SMILES: C=C(Br)CC1(C(C)C)C(=O)NC(=O)NC1=O
- melting point: 177 °C

SMILES: CC(=O)NCC1CN(c2ccc(N3CCOCC3)c(F)c2)C(=O)O1 (stereo unspecified)
- melting point: 182 °C

SMILES: O=C1OCC(O)C1O (stereo unspecified)
- melting point: 99 to 102 °C

SMILES: O=C(Cl)c1ccc2c(c1)OCO2
- melting point: 80 to 81 °C

SMILES: CC1C=Cn2c(cc3ccccc3c2=O)C1 (stereo unspecified)
- melting point: 89 °C

SMILES: O=C(O)c1cc2cc3c4c(c2oc1=O)CCCN4CCC3
- melting point: 240 °C

SMILES: COC(=O)C=Cc1ccc(OC)c(OC2CCCC2)c1
- melting point: 54 to 57 °C

SMILES: CCN(CC)C(C)O (stereo unspecified)
- melting point: -70 °C

SMILES: CC(=O)OC1(C(C)=O)CCC2C3C=C(C)C4=CC(=O)CCC4(C)C3CCC21C (stereo unspecified)
- melting point: 214 °C

SMILES: CC(C)(C)c1cc(C(C)(C)C)c2oc(C(=O)O)cc(=O)c2c1
- melting point: 229 to 236 °C

SMILES: NNC(=O)COc1ccc(F)cc1
- melting point: 125 °C

SMILES: COC(=O)Oc1c(F)c(F)c(F)c(F)c1F
- melting point: 29 °C

SMILES: O=Cc1ccc(OCc2ccc(Cl)c(Cl)c2)cc1
- melting point: 92 to 93 °C

SMILES: Cc1cc(Sc2nnc(N)s2)c2ccccc2n1
- melting point: 197 to 200 °C

SMILES: CC(C)c1ccccc1OS(=O)(=O)c1ccc([N+](=O)[O-])cc1
- melting point: 98 to 100 °C

SMILES: OCc1cc(-c2cccs2)[nH]n1
- melting point: 126 to 128 °C

SMILES: CCCC(=O)Oc1c[nH]c2cc(Cl)ccc12
- melting point: 98 to 102 °C

SMILES: CCOC(=O)c1cnc2nc(SC)nn2c1N
- melting point: 211 to 213 °C

SMILES: CC=CC=CC
- melting point: -79 °C

SMILES: O=C1Cc2cc(S(=O)(=O)Cl)ccc2N1
- melting point: 160 °C

SMILES: CCCCCCCCCCCCCCCCCCCCCCCO
- melting point: 74 to 76 °C

SMILES: N#Cc1ccc(NN)c(Cl)c1
- melting point: 127 to 128 °C

SMILES: Cc1nsc(-c2ccc(Cl)cc2)n1
- melting point: 81 to 83 °C

SMILES: CSc1nc(N)ns1
- melting point: 156 to 158 °C

SMILES: CC12C=CC(=O)C=C1CCC1C2CCC2(C)C1CCC2(C)O (stereo unspecified)
- melting point: 164 °C

SMILES: COC(=O)c1cc2ccccc2s1
- melting point: 70 °C

SMILES: CCc1c(C)c[nH]c1C
- melting point: 0 °C

SMILES: CN(C)c1ccc(C2C3=C(CC(C)(C)CC3=O)Nc3ccc4ccccc4c32)cc1 (stereo unspecified)
- melting point: 327 °C

SMILES: C#Cc1ccc(C(C)=O)cc1
- melting point: 68 to 70 °C

SMILES: O=C(O)CCSC=Cc1ccccc1
- melting point: 117 to 120 °C

SMILES: CCS(=O)(=O)c1nnc(N(C)C(=O)NC)s1
- melting point: 156 °C

SMILES: Cc1cc(Br)ccc1N=C=O
- melting point: 49 °C

SMILES: CC1=C(C(=O)OCc2ccccc2)C(c2ccc3c(c2)OCO3)NC(=O)N1 (stereo unspecified)
- melting point: 158 to 160 °C

SMILES: CC(C)(C)c1ncc(C(=O)Nc2cccc(Br)c2)nc1Cl
- melting point: 105 °C

SMILES: CSc1nc(=O)[nH]c2c1CCCC2
- melting point: 264 to 266 °C

SMILES: Nc1cc(Br)ccn1
- melting point: 146 °C

SMILES: Cc1cccc(C)c2cc(C(C)C)cc1-2
- melting point: 32.3 °C

SMILES: CC(CCC(O)(Cl)Cl)C1CCC2C3C(O)CC4CC(O)CCC4(C)C3CC(O)C12C (stereo unspecified)
- melting point: 162 to 170 °C

SMILES: FC(F)(I)C(F)(F)C(F)(F)C(F)(F)I
- melting point: -9 °C

SMILES: O=C(CS)Nc1ccc(F)cc1
- melting point: 92 to 94 °C

SMILES: COC(=O)c1ccc(CO)cc1
- melting point: 45 to 50 °C

SMILES: O=C(OC1CCCCC1)C(=O)OC1CCCCC1
- melting point: 43.5 °C

SMILES: COC(=O)C1(S(=O)(=O)c2ccc(Br)cc2)CCC1
- melting point: 95 °C

SMILES: O=C(O)C(O)(O)C(O)(O)C(=O)O
- melting point: 114 °C

SMILES: [O-][P+](c1ccccc1)(c1ccccc1)C1Sc2ccccc2S1
- melting point: 181 °C

SMILES: O=C(CCl)N[C@@H](Cc1ccc(O)cc1)C(=O)O
- melting point: 153 to 154 °C

SMILES: CCOC(=O)C1=C(C)NC(=O)NC1c1ccc([N+](=O)[O-])cc1 (stereo unspecified)
- melting point: 208 °C

SMILES: c1ccc2c(c1)ccc1nc3ccc4ccccc4c3cc12
- melting point: 216 °C

SMILES: Cc1nn(-c2ccccc2)c(C)c1CO
- melting point: 106 to 110 °C

SMILES: FC(F)(F)c1nc2c(Cl)c(Cl)ccc2[nH]1
- melting point: 214 °C

SMILES: Nc1ccc(N2CCCCC2)cc1
- melting point: 27 °C

SMILES: O=Cc1cccc(-c2ccsc2)c1
- melting point: 48 to 49 °C

SMILES: CCCCNC(=O)NNC(=O)OCC
- melting point: 97 °C

SMILES: C#CC(C1COC(C)(C)O1)N(O)Cc1ccccc1 (stereo unspecified)
- melting point: 115 °C

SMILES: O=P(O)(O)OCC(O)CO (stereo unspecified)
- melting point: -25 °C

SMILES: Cc1cc(C)c2c(c1C)CC2=O
- melting point: 98 °C

SMILES: CC1(C)CC(O)CC(C)(CN)C1 (stereo unspecified)
- melting point: 45.5 °C

SMILES: S=C=Nc1ccc(OCc2ccccc2)cc1
- melting point: 64 °C

SMILES: CC1C2CCC3C4CC=C5CC(N(C)C)CCC5(C)C4CCC32CN1C (stereo unspecified)
- melting point: 126 °C

SMILES: CSc1nc(N)nc(N2CCCCC2)n1
- melting point: 156 to 158 °C

SMILES: CC#CCCCCCCCC
- melting point: -30.1 °C

SMILES: CCCCCCCCOc1ccccc1
- melting point: 8 °C

SMILES: OCC1CCC(n2cnc3c(O)ncnc32)O1 (stereo unspecified)
- melting point: 175 °C

SMILES: CCCCCCCCCCOc1ccc(/N=N/c2ccc(CCCC)cc2)cc1
- melting point: 55.5 to 74 °C

SMILES: C=CCNC(N)=S
- melting point: 78 °C

SMILES: c1ccc2c(c1)CCc1ccccc1N2C1CN2CCC1CC2 (stereo unspecified)
- melting point: 150 °C

SMILES: c1ccc2c(c1)Cc1c-2ccc2ccccc12
- melting point: 190 °C

SMILES: CC1(C)Cc2cccc(CO)c2O1
- melting point: 59 to 60 °C

SMILES: FCCl
- melting point: -133 °C

SMILES: [O-][P+](c1ccccc1)(c1ccccc1)C1C2=C(OC3=C1CCc1ccccc13)c1ccccc1CC2
- melting point: 215 °C

SMILES: Nc1nc(N)sc(=S)n1
- melting point: 360 °C

SMILES: Cc1ccc(C(=O)C(=O)c2ccc(Cl)cc2)cc1
- melting point: 123 to 124 °C

SMILES: S=C=Nc1ccc(I)cc1
- melting point: 76 to 78 °C

SMILES: N#Cc1cccc(C(N)=O)c1
- melting point: 223 °C

SMILES: Oc1ccc(CCc2nnc(S)n2-c2ccc(F)cc2)cc1
- melting point: 204 to 205 °C

SMILES: O=C(O)c1ccccc1S
- melting point: 164 to 169 °C

SMILES: O=[N+]([O-])c1ccc(N=Nc2ccc(N(CCO)CCO)cc2Cl)cc1
- melting point: 190 °C

SMILES: Brc1ccc(Oc2ccc(Br)cc2Br)cc1
- melting point: 64 to 64.5 °C

SMILES: Cc1ccc(-c2csc(/C(C#N)=N/Nc3ccc(F)cc3)n2)cc1
- melting point: 196 °C

SMILES: Cc1ccc(C(=S)N2CCCCC2)cc1
- melting point: 93 °C

SMILES: CC(CCC(=O)O)C1CCC2C3CCC4CCCCC4(C)C3CCC12C (stereo unspecified)
- melting point: 164 °C

SMILES: O=Cc1ccc(-c2ccc(C(F)(F)F)cc2Cl)o1
- melting point: 86 to 87 °C

SMILES: Cc1ncnc2[nH]cnc12
- melting point: 235 to 240 °C

SMILES: Clc1cc(Cl)c2oc3c(Cl)c(Cl)ccc3c2c1
- melting point: 164 °C

SMILES: CCn1c(-c2ccccc2)cc2ccccc21
- melting point: 86 °C

SMILES: O=C(Cl)c1nc2ccccc2s1
- melting point: 150 °C

SMILES: CCOC(=O)C=Cc1ccc(OC)c(OC)c1Cl
- melting point: 68 to 69 °C

SMILES: COC(=O)CCc1c([N+](=O)[O-])cc2c(c1[N+](=O)[O-])NC(=O)CC2
- melting point: 166 °C

SMILES: NCCCOCCCCOCCCN
- melting point: 4.5 °C

SMILES: Nc1nc(=O)c2[nH]nnc2[nH]1
- melting point: 300 °C

SMILES: COc1ccc(SSc2ccc(OC)cc2)cc1
- melting point: 40 to 42 °C

SMILES: C=CCc1c(N)c(C(C)=O)cc(C(C)=O)c1O
- melting point: 99.5 to 102 °C

SMILES: CSC(C)=NOC(=O)N(C)SN(C)C(=O)ON=C(C)SC
- melting point: 173 °C
